From ChEMBL document CHEMBL1122466, “Synthesis of partially modified retro-inverso substance P analogues and their biological activity” (1983)
Residues, ends and D or L forms follow the SMILES beside them.

Experiments:
Cavia porcellus [1] = organism: Cavia porcellus; assay: Relative potency in guinea pig ileum assay.; assay type: functional
Cavia porcellus [2] = organism: Cavia porcellus; assay: ED50 represents the concentration of the agonist in the organ bath corresponding to 50% of the maximal measured spasmogenic effect.; assay type: functional

SMILES | Relative potency (Cavia porcellus [1]) | ED50 (Cavia porcellus [2]) [pM]
CSCC[C@H](NC(=O)[C@H](CC(C)C)NC(=O)CNC(=O)[C@H](Cc1ccccc1)NC(=O)[C@@H](Cc1ccccc1)C(=O)N[C@@H]1CCC(=O)N1)C(N)=O (HELM PEPTIDE1{[O=C1CC[C@@H](NC(=O)[C@H](Cc2ccccc2)C(=O)[*:2])N1].F.G.L.M.[am]}$$$$V2.0) | <0.01 | 
CSCC[C@@H](NC(=O)[C@H](CC(C)C)NC(=O)CC(=O)N[C@H](Cc1ccccc1)NC(=O)[C@@H](Cc1ccccc1)NC(=O)[C@@H]1CCC(=O)N1)C(N)=O | 22 | 900
